Assay results reported in ChEMBL document CHEMBL3045911, “Control of Contarinia nasturtii Keiffer (Diptera: Cecidomyiidea) by foliar sprays of acetamiprid on cauliflower transplants” (2007).
Calls of active or inactive are those of the source. The rule behind the calls is not given here.

Key:
[1] = system: Contarinia nasturtii; test: Pesticidal activity against Contarinia nasturtii grown on three-leaf stage cauliflower seedling assessed as insect egg hatching at 34 g a.i./ha applied as foliar spray immediately post-ovipositioning measured after 7 days (reference value: 100%); assay type: functional
[2] = system: Contarinia nasturtii; test: Pesticidal activity against Contarinia nasturtii grown on three-leaf stage cauliflower seedling at 34 g a.i./ha applied as foliar spray immediately post-ovipositioning measured after 7 days; assay type: functional
[3] = system: Contarinia nasturtii; test: Pesticidal activity against Contarinia nasturtii grown on three-leaf stage cauliflower seedling assessed as insect egg hatching at 34 g a.i./ha applied as foliar spray 8 days post-ovipositioning measured after 10 days (reference value: 100%); assay type: functional
[4] = system: Contarinia nasturtii; test: Pesticidal activity against Contarinia nasturtii grown on […] assessed as larval pupation applied as foliar spray 8 days post-ovipositioning relative to control; assay type: functional
[5] = system: Contarinia nasturtii; test: Pesticidal activity against Contarinia nasturtii grown on three-leaf stage cauliflower seedling assessed as insect egg death at 34 g a.i./ha applied as foliar spray prior to oviposition measured after 7 days; assay type: functional, organism-based
[6] = system: Contarinia nasturtii; test: Pesticidal activity against Contarinia nasturtii grown on three-leaf stage cauliflower seedling assessed as mortality of insect adult at 34 g a.i./ha applied as foliar spray prior to oviposition measured after 48 hr relative to control; assay type: functional
[7] = system: Contarinia nasturtii; test: Pesticidal activity against Contarinia nasturtii grown on three-leaf stage cauliflower seedling at 34 g a.i./ha applied as foliar spray 4 days post-ovipositioning measured after 7 days; assay type: functional
[8] = system: Contarinia nasturtii; test: Pesticidal activity against Contarinia nasturtii grown on […] assessed as larvae survival applied as foliar spray 8 days post-ovipositioning relative to control; assay type: functional
[9] = system: Contarinia nasturtii; test: Pesticidal activity against Contarinia nasturtii grown on three-leaf stage cauliflower seedling assessed as decrease in damage to seedling tips at 34 g a.i./ha applied as foliar spray 8 days post-ovipositioning measured after 10 days; assay type: functional, organism-based
[10] = system: Contarinia nasturtii; test: Pesticidal activity against Contarinia nasturtii grown on three-leaf stage cauliflower seedling assessed as decrease in larval feeding time at 34 g a.i./ha applied as foliar spray 8 days post-ovipositioning measured as emergence of adult insect in the soil 7 days after cutting of seedling; assay type: functional, organism-based
[11] = system: Contarinia nasturtii; test: Pesticidal activity against Contarinia nasturtii grown on three-leafstage cauliflower seedling assessed as insect egg hatching at 34 g a.i./ha applied as foliar spray prior to oviposition measured after 7 days (reference value: 100%); assay type: functional
[12] = system: Contarinia nasturtii; test: Pesticidal activity against Contarinia nasturtii grown on […] applied as foliar spray immediately post-ovipositioning relative to control; assay type: functional
[13] = system: Contarinia nasturtii; test: Pesticidal activity against Contarinia nasturtii grown on three-leaf stage cauliflower seedling at 34 g a.i./ha applied as foliar spray prior to oviposition measured after 7 days; assay type: functional
[14] = system: Contarinia nasturtii; test: Pesticidal activity against Contarinia nasturtii grown on three-leaf stage cauliflower seedling assessed as insect egg death at 34 g a.i./ha applied as foliar spray immediately post-ovipositioning measured after 7 days relative to control; assay type: functional
[15] = system: Contarinia nasturtii; test: Pesticidal activity against Contarinia nasturtii grown on three-leaf stage cauliflower seedling at 34 g a.i./ha applied as foliar spray 8 days post-ovipositioning measured after 10 days; assay type: functional
[16] = system: Contarinia nasturtii; test: Pesticidal activity against Contarinia nasturtii grown on three-leaf stage cauliflower seedling assessed as decrease in insect eggs laid per plant at 34 g a.i./ha applied as foliar spray 4 days post-ovipositioning measured after 7 days relative to control; assay type: functional, organism-based
[17] = system: Contarinia nasturtii; test: Pesticidal activity against Contarinia nasturtii grown on three-leaf stage cauliflower seedling assessed as decrease in insect eggs laid per plant at 34 g a.i./ha applied as foliar spray prior to oviposition measured after 7 days relative to control; assay type: functional, organism-based
[18] = system: Contarinia nasturtii; test: Pesticidal activity against Contarinia nasturtii grown on three-leaf stage cauliflower seedling assessed as decrease in mean number of larvae at 34 g a.i./ha applied as foliar spray 8 days post-ovipositioning measured on the above ground part of seedling after 10 days; assay type: functional, organism-based
[19] = system: Contarinia nasturtii; test: Pesticidal activity against Contarinia nasturtii grown on three-leaf stage cauliflower seedling assessed as mortality of insect adult at 34 g a.i./ha applied as foliar spray prior to oviposition measured after 24 hr relative to control; assay type: functional
[20] = system: Contarinia nasturtii; test: Pesticidal activity against Contarinia nasturtii grown on three-leaf stage cauliflower seedling assessed as insect egg hatching at 34 g a.i./ha applied as foliar spray 4 days post-ovipositioning measured after 7 days (reference value: 99.73 +/- 0.27%); assay type: functional
[21] = system: Contarinia nasturtii; test: Pesticidal activity against Contarinia nasturtii grown on three-leaf stage cauliflower seedling assessed as decrease in insect eggs laid per plant at 34 g a.i./ha applied as foliar spray immediately post-ovipositioning measured after 7 days relative to control; assay type: functional, organism-based

`C/C(=N\C#N)N(C)Cc1ccc(Cl)nc1` [ACETAMIPRID] showed an Activity [1] of 0%, an Activity [2] of 100% and an Activity [3] of 100%. The Activity [4] was 20%, the Activity [5] was “Active” and the mortality at 34 g/ha [6] was 100%. For the same molecule, the Activity [7] was 99.83%, the Activity [8] was 30% and the Activity [9] was “inactive”. For the same molecule, the Activity [10] was “Active”, the Activity [11] was 0.48% and the Activity [12] was 99.9%. It also gave an Activity [13] of 99.52%, an Activity [14] of 100% and an Activity [15] of 69.89%. For the same molecule, the Activity [16] was “inactive”, the Activity [17] was “Active” and the Activity [18] was “Active”. For the same molecule, the mortality at 34 g/ha [19] was 84.4%, the Activity [20] was 100% and the Activity [21] was “inactive”.
